Test results published in PubChem BioAssay AID330 (DTP/NCI, 2004).
Where “and” joins values, the source holds several entries; their conditions need not be identical. Identical values can stand only once. Inconclusive results and toxic doses are left out. The calls were made as follows: active = survival T/C of 150% or more; inactive = T/C below 125% in these data.

Tested on: P388 leukemia ip, CD2F1 mice, survival T/C
Assay: NCI In Vivo Anticancer Drug Screen. Data for tumor model P388 Leukemia (intraperitoneal) in CD2F1 (CDF1) mice
Details: endpoint: median survival time, higher = longer survival
Method in brief: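 Mice carrying the transplanted tumor received test compound or vehicle. Survival was recorded in each group, and the value is the treated-group measurement divided by that of the vehicle-treated control group.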

[1] = dose: 50.0 mg/kg/injection, schedule: Q01DX009 (ip), vehicle: saline with Tween-80
[2] = dose: 100.0 mg/kg/injection, schedule: Q01DX009 (ip), vehicle: saline with Tween-80
[3] = dose: 25.0 mg/kg/injection, schedule: Q01DX009 (ip), vehicle: Klucel (hydroxypropylcellulose) (HPC)
[4] = dose: 50.0 mg/kg/injection, schedule: Q01DX009 (ip), vehicle: Klucel (hydroxypropylcellulose) (HPC)
[5] = dose: 100.0 mg/kg/injection, schedule: Q01DX009 (ip), vehicle: Klucel (hydroxypropylcellulose) (HPC)
[6] = dose: 200.0 mg/kg/injection, schedule: Q01DX009 (ip), vehicle: Klucel (hydroxypropylcellulose) (HPC)
[7] = dose: 100.0 mg/kg/injection, schedule: Q01DX001 (ip), vehicle: saline with Tween-80
[8] = dose: 200.0 mg/kg/injection, schedule: Q01DX001 (ip), vehicle: saline with Tween-80
[9] = dose: 400.0 mg/kg/injection, schedule: Q01DX001 (ip), vehicle: saline with Tween-80
[10] = dose: 60.0 mg/kg/injection, schedule: Q01DX005 (ip), vehicle: saline with Tween-80
[11] = dose: 120.0 mg/kg/injection, schedule: Q01DX005 (ip), vehicle: saline with Tween-80
[12] = dose: 240.0 mg/kg/injection, schedule: Q01DX005 (ip), vehicle: saline with Tween-80
[13] = dose: 50.0 mg/kg/injection, schedule: Q01DX005 (ip), vehicle: Klucel (hydroxypropylcellulose) (HPC)
[14] = dose: 100.0 mg/kg/injection, schedule: Q01DX005 (ip), vehicle: Klucel (hydroxypropylcellulose) (HPC)
[15] = dose: 200.0 mg/kg/injection, schedule: Q01DX005 (ip), vehicle: Klucel (hydroxypropylcellulose) (HPC)

Measured: T/C

N#CC(OC(=O)c1cccc(C(=O)OC(C#N)(C(F)(F)F)C(F)(F)F)c1Sc1ccccc1)(C(F)(F)F)C(F)(F)F
inactive: dose: 100.0 mg/kg/injection, schedule: Q04DX002 (ip), vehicle: Klucel (hydroxypropylcellulose) (HPC) 109 % of control | dose: 400.0 mg/kg/injection, schedule: Q04DX002 (ip), vehicle: Klucel (hydroxypropylcellulose) (HPC) 115 % of control

O=C1c2ccccc2CC1CN1CCCCC1 (centres undefined)
inactive: dose: 6.25 mg/kg/injection, schedule: Q04DX002 (ip), vehicle: saline 108 % of control | dose: 12.5 mg/kg/injection, schedule: Q04DX002 (ip), vehicle: saline 100 % of control | dose: 25.0 mg/kg/injection, schedule: Q04DX002 (ip), vehicle: saline 100 % of control

O=C(O)c1cc(=O)c2cc3c(=O)cc(C(=O)O)[nH]c3c(Cl)c2[nH]1
inactive: dose: 25.0 mg/kg/injection, schedule: Q01DX009 (ip), vehicle: saline with Tween-80 96 % of control | [1] 96 % of control | [2] 100 % of control

COC(=O)Nc1nnc(Cn2c([N+](=O)[O-])cnc2C)s1
inactive: dose: 100.0 mg/kg/injection, schedule: Q01DX001 (ip), vehicle: Klucel (hydroxypropylcellulose) (HPC) 96 % of control | dose: 200.0 mg/kg/injection, schedule: Q01DX001 (ip), vehicle: Klucel (hydroxypropylcellulose) (HPC) 101 % of control | dose: 400.0 mg/kg/injection, schedule: Q01DX001 (ip), vehicle: Klucel (hydroxypropylcellulose) (HPC) 93 % of control

O=S1(=O)O[C@H]2CCCC[C@H]2O1
inactive: dose: 1.75 mg/kg/injection, schedule: Q01DX009 (ip), vehicle: Klucel (hydroxypropylcellulose) (HPC) 100 % of control | dose: 3.5 mg/kg/injection, schedule: Q01DX009 (ip), vehicle: Klucel (hydroxypropylcellulose) (HPC) 98 % of control | dose: 7.0 mg/kg/injection, schedule: Q01DX009 (ip), vehicle: Klucel (hydroxypropylcellulose) (HPC) 101 % of control | dose: 14.0 mg/kg/injection, schedule: Q01DX009 (ip), vehicle: Klucel (hydroxypropylcellulose) (HPC) 98 % of control

COc1ccc2c(Cl)cc(NC(=S)Nc3ccccc3)nc2c1
inactive: dose: 6.25 mg/kg/injection, schedule: Q01DX009 (ip), vehicle: Klucel (hydroxypropylcellulose) (HPC) 103 % of control | dose: 12.5 mg/kg/injection, schedule: Q01DX009 (ip), vehicle: Klucel (hydroxypropylcellulose) (HPC) 104 % of control | [3] 96 % of control

O=C(NO)c1ccccc1
inactive: [3] 98 % of control | dose: 50.0 mg/kg/injection, schedule: Q01DX001 (ip), vehicle: saline 102 % of control | [4] 98 % of control | [1] 103 % of control | dose: 50.0 mg/kg/injection, schedule: Q04DX003 (ip), vehicle: saline with Tween-80 106 % of control | dose: 100.0 mg/kg/injection, schedule: Q01DX001 (ip), vehicle: saline 102 % of control | [5] 107 % of control | dose: 100.0 mg/kg/injection, schedule: Q04DX003 (ip), vehicle: saline with Tween-80 102 % of control | [6] 116 % of control | dose: 200.0 mg/kg/injection, schedule: Q01DX009 (ip), vehicle: saline with Tween-80 103 % of control | dose: 200.0 mg/kg/injection, schedule: Q04DX003 (ip), vehicle: saline with Tween-80 102 % of control | dose: 400.0 mg/kg/injection, schedule: Q01DX009 (ip), vehicle: Klucel (hydroxypropylcellulose) (HPC) 114 % of control | dose: 400.0 mg/kg/injection, schedule: Q04DX003 (ip), vehicle: saline with Tween-80 109 % of control

COc1ccc(C)cc1N=NC1C(=O)N(C(=O)CC(=O)Nc2cccc(C)c2)N=C1C (centres undefined)
inactive: dose: 60.0 mg/kg/injection, schedule: Q01DX005 (ip), vehicle: Klucel (hydroxypropylcellulose) (HPC) 95 % of control | dose: 120.0 mg/kg/injection, schedule: Q01DX005 (ip), vehicle: Klucel (hydroxypropylcellulose) (HPC) 89 % of control | dose: 240.0 mg/kg/injection, schedule: Q01DX005 (ip), vehicle: Klucel (hydroxypropylcellulose) (HPC) 90 % of control

O=C(Cn1c(=O)cc(Nc2ccccc2)c2ccccc21)Nc1ccccc1
inactive: [7] 94 % of control | [8] 94 % of control | [9] 94 % of control

O=c1oc2ccc(Br)cc2cc1-n1nnc2ccccc21
inactive: dose: 15.0 mg/kg/injection, schedule: Q01DX005 (ip), vehicle: saline with Tween-80 88 % of control | dose: 30.0 mg/kg/injection, schedule: Q01DX005 (ip), vehicle: saline with Tween-80 93 % of control | [10] 88 % of control and 90 % of control | [11] 86 % of control and 97 % of control | [12] 97 % of control

O=P(C(=S)NC1CC2C=CC1C2)(c1ccccc1)c1ccccc1 (centres undefined)
inactive: [3] 95 % of control | [4] 100 % of control and 88 % of control | [5] 91 % of control | [6] 90 % of control

O=C(C=Nc1ccc(Cl)c(Cl)c1)c1ccccc1
inactive: [4] 100 % of control | [5] 100 % of control | [6] 94 % of control

Cc1ccc(OP(=O)(Oc2ccc(C)cc2)Oc2ccc(C)cc2)cc1.Cc1ccc(OP(=O)(Oc2ccc(C)cc2)Oc2ccc(C)cc2)cc1.[Cl][Cu][Cl]
inactive: dose: 12.5 mg/kg/injection, schedule: Q04DX003 (ip), vehicle: Klucel (hydroxypropylcellulose) (HPC) 99 % of control | dose: 25.0 mg/kg/injection, schedule: Q04DX003 (ip), vehicle: Klucel (hydroxypropylcellulose) (HPC) 96 % of control | dose: 50.0 mg/kg/injection, schedule: Q04DX003 (ip), vehicle: Klucel (hydroxypropylcellulose) (HPC) 99 % of control

Clc1ccccc1C(Nc1nncs1)Nc1nncs1
inactive: [10] 106 % of control | [11] 113 % of control | [12] 122 % of control

CCC12OC(COc3ccccc3)CN1CCN2c1ccccc1 (centres undefined)
inactive: [10] 97 % of control | [11] 98 % of control

COC(=O)Nc1c2ccccc2nc2c1c(C)c(C)c1ccccc12
inactive: [7] 88 % of control | [8] 88 % of control | [9] 95 % of control

C/C(=N\N(C)/C=N/S(C)(=O)=O)c1ccccc1
inactive: [13] 98 % of control | [14] 95 % of control | [15] 104 % of control

O=C(O)CSc1nnc(Cc2cccc3ccccc23)n1-c1ccccc1
inactive: [13] 100 % of control | [14] 102 % of control | [15] 100 % of control

C[CH2][Sn]1([CH2]C)[c]2ccccc2Oc2cccc[c]21
inactive: [1] 109 % of control | [2] 109 % of control

O=C1CSC(c2ccc(F)cc2)N1CCN1C(=O)CSC1c1ccc(F)cc1 (centres undefined)
inactive: [10] 106 % of control | [11] 100 % of control | [12] 95 % of control

CCc1cc(/C=C2/OC(=O)c3ccccc32)cc(CC)c1O
inactive: dose: 100.0 mg/kg/injection, schedule: Q04DX002 (ip), vehicle: saline 101 % of control | dose: 200.0 mg/kg/injection, schedule: Q04DX002 (ip), vehicle: saline 100 % of control | dose: 400.0 mg/kg/injection, schedule: Q04DX002 (ip), vehicle: saline 100 % of control
